# In publication PMC9556824, “Design, synthesis and computational study of new benzofuran hybrids as dual PI3K/VEGFR2 inhibitors targeting cancer” (Scientific Reports, 2022):
# Experiments:
# [1] = tested on: human lung fibroblast (WI38); test: In vitro cytotoxicity against human normal cell line (MTT); type: cell-based; conditions: for Average of Relative viability of cells (%): WI38
# From the text: The anticancer agent's selectivity for cancer cells is a critical consideration for any researcher, as it can decrease the molecule's adverse effects on normal human cells.
# [2] = tested on: human prostate cancer (PC3); test: Antitumor screening using MTT assay; conditions: PC3
# From the text: (§1) Hepatocellular carcinoma (HePG2), mammary gland breast cancer (MCF-7), epithelioid carcinoma cervix cancer (Hela), and human prostate cancer were included on the panel (PC3). […] The cell lines were obtained from the American Type Culture Collection (ATCC) through VACSERA, a Cairo-based holding firm for biological goods and vaccines.
# (§2) The panel consisted of hepatocellular carcinoma (HePG2), mammary gland breast cancer (MCF-7), epithelioid carcinoma cervix cancer (Hela) and human prostate cancer (PC3). Human lung fibroblast (WI38) was used to assay the cytotoxicity effect on normal cell. The cell lines were obtained from ATCC via Holding company for biological products and vaccines (VACSERA), Cairo, Egypt. The cytotoxic activity was defined as the concentration of the compound that causes 50% growth inhibition compared with the growth of untreated cells.
# [3] = tested on: epithelioid carcinoma cervix cancer (Hela); test: Antitumor screening using MTT assay; conditions: Hela
# From the text: as §1, §2
# [4] = tested on: mammary gland breast cancer (MCF-7); test: Antitumor screening using MTT assay; conditions: for Average of Relative viability of cells (%): MCF7
# From the text: as §1, §2
# [5] = tested on: Hepatocellular carcinoma (HePG2); test: Antitumor screening using MTT assay; type: cell-based, human
# [6] = tested on: HePG2, MCF-7, Hela, PC3 cell lines; test: Antitumor screening using MTT assay, statements across several cell lines; type: cell-based, human; conditions: HePG2, MCF-7, Hela, PC3
# From the text: as §1, §2
substance,measurement,setting,value
2-(benzofuran-2-yl)-1-(4-methylpiperazin-1-yl)ethanethione [Compound 3],Average of Relative viability of cells (%),[1]; Conc. 1.56 µM,100%
same,Average of Relative viability of cells (%),[1]; Conc. 3.125 µM,100%
same,Average of Relative viability of cells (%),[1]; Conc. 6.25 µM,97.0%
same,Average of Relative viability of cells (%),[1]; Conc. 12.5 µM,85.3%
same,Average of Relative viability of cells (%),[1]; Conc. 25 µM,71.8%
same,Average of Relative viability of cells (%),[1]; Conc. 50 µM,59.2%
same,Average of Relative viability of cells (%),[1]; Conc. 100 µM,47.4%
same,IC50,"[1]; human normal cell line WI38, mean ± SD, n = 3",78.5 ± 3.8 µM
same,Average of Relative viability of cells (%),[2]; Conc. 1.56 µM,100%
same,Average of Relative viability of cells (%),[2]; Conc. 3.125 µM,100%
same,Average of Relative viability of cells (%),[2]; Conc. 6.25 µM,100%
same,Average of Relative viability of cells (%),[2]; Conc. 12.5 µM,92.8%
same,Average of Relative viability of cells (%),[2]; Conc. 25 µM,71.9%
same,Average of Relative viability of cells (%),[2]; Conc. 50 µM,59.5%
same,Average of Relative viability of cells (%),[2]; Conc. 100 µM,37.5%
same,IC50,"[2]; read-out: In-vitro cytotoxicity IC50 (µM) PC3, mean ± SD, n = 3",65 ± 3.2 µM
same,Average of Relative viability of cells (%),[3]; Conc. 1.56 µM,100%
same,Average of Relative viability of cells (%),[3]; Conc. 3.125 µM,100%
same,Average of Relative viability of cells (%),[3]; Conc. 6.25 µM,97.1%
same,Average of Relative viability of cells (%),[3]; Conc. 12.5 µM,75.9%
same,Average of Relative viability of cells (%),[3]; Conc. 25 µM,64.8%
same,Average of Relative viability of cells (%),[3]; Conc. 50 µM,50.7%
same,Average of Relative viability of cells (%),[3]; Conc. 100 µM,36.1%
same,IC50,"[3]; read-out: In-vitro cytotoxicity IC50 (µM) Hela, mean ± SD, n = 3",51.4 ± 3.1 µM
same,Average of Relative viability of cells (%),[4]; Conc. 1.56 µM,100%
same,Average of Relative viability of cells (%),[4]; Conc. 3.125 µM,100%
same,Average of Relative viability of cells (%),[4]; Conc. 6.25 µM,94.7%
same,Average of Relative viability of cells (%),[4]; Conc. 12.5 µM,72.4%
same,Average of Relative viability of cells (%),[4]; Conc. 25 µM,61.3%
same,Average of Relative viability of cells (%),[4]; Conc. 50 µM,47.6%
same,Average of Relative viability of cells (%),[4]; Conc. 100 µM,33.9%
same,IC50,"[4]; read-out: In-vitro cytotoxicity IC50 (µM) MCF-7, MCF-7, mean ± SD, n = 3",45.1 ± 2.9 µM
same,Average of Relative viability of cells (%),[5]; Conc. 1.56 µM,100%
same,Average of Relative viability of cells (%),[5]; Conc. 3.125 µM,100%
same,Average of Relative viability of cells (%),[5]; Conc. 6.25 µM,82.4%
same,Average of Relative viability of cells (%),[5]; Conc. 12.5 µM,76.1%
same,Average of Relative viability of cells (%),[5]; Conc. 25 µM,50.2%
same,Average of Relative viability of cells (%),[5]; Conc. 50 µM,42.8%
same,Average of Relative viability of cells (%),[5]; Conc. 100 µM,29.5%
same,IC50,"[5]; mean ± SD, n = 3, read-out: In-vitro cytotoxicity IC50 (µM) HePG2",34.8 ± 2.5 µM
same,anticancer activity towards the four / all assessed cell lines (grade),[6],weak (51–100 (weak))
